# Source: patent US20240199647A1, “ANTI-VIRAL COMPOUNDS” (Aligos Therapeutics, Inc., priority 2022, published 2024)
# Read-outs that look alike come from different tables or passages of the source.
# Columns and labels:
# SARS-Cov-2 3CLpro = SARS-Cov-2 3CLpro (Severe acute respiratory syndrome coronavirus 2, UniProt P0DTD1); test: biochemical; conditions: Table A, class symbols, read-out: SARS-Cov-2 (IC50)
# [1] = system: human beta-coronavirus OC43; test: OC43 Coronavirus Assay in HeLa cells (antiviral, cytopathic effect, cell-titer-glo); assay type: cell-based; conditions: Betacoronavirus 1, OC43, HeLa
# [2] = system: SARS-CoV-2 B.1.1.7 lineage; test: microbe, parasite or virus in culture; assay type: cell-based; conditions: Severe acute respiratory syndrome coronavirus 2, Table C, SARS-CoV-2 B.1.1.7 in A549-dual_ACE2_TMPRSS2 cells, read-out: A549-dual_ACE2_TMPRSS2 (EC50)
# in vitro = conditions: human
# [3] = Cytotoxicity in HeLa cells without addition of OC43 virus (in parallel); conditions: human, HeLa cells, without OC43 virus
# [4] = Table B, OC43 coronavirus in HeLa cells, class symbols, read-out: EC50
SMILES,IC50 (SARS-Cov-2 3CLpro),"EC50 [1, 4]",EC50 ([2]; cells given as a bound),CC50 (in vitro),CC50 at 6 days [3],EC50 ([2]; class symbols),EC50 [1]
CN(C(=O)c1cnc(C(F)(F)F)[nH]1)[C@@H](CC1CC1)C(=O)N1C[C@@]2(C[C@H]1C#N)Oc1cc(F)cc(F)c1NC2=O [Compound 171],20 to 200 nM,1000 to 10000 nM,> 1000 nM,> 1000 nM,> 10000 nM,–,–
CN(C(=O)[C@H](CC1CC1)NC(=O)C(F)(F)F)[C@@H](CC1CC1)C(=O)N1C[C@@]2(CC1C#N)Oc1c(C#N)cccc1NC2=O (some centres unmarked) [Compound 124],< 20 nM,< 100 nM,–,> 1000 nM,> 10000 nM,100 to 1000 nM,–
C[C@@H](OC(C)(C)C)[C@H](NC(=O)C(F)(F)F)C(=O)N(C)[C@@H](CC1CC1)C(=O)N1C[C@@]2(C[C@H]1C#N)Oc1cc(F)cc(F)c1NC2=O [Compound 159],< 20 nM,100 to 1000 nM,–,> 1000 nM,> 10000 nM,< 100 nM,–
"CN(C(=O)C(=O)Nc1ccc(F)cc1)[C@@H](CC1CC1)C(=O)N1C[C@@]2(C[C@H]1C#N)Oc1cccnc1NC2=O [Compound 226, N^1—((S)-1-((2R,5'S)-5′-cyano-3-oxo-3,4-dihydrospiro[pyrido[3,2-b][1,4]oxazine-2,3′-pyrrolidin]-1′-yl)-3-cyclopropyl-1-oxopropan-2-yl)-N^2-(4-fluorophenyl)-N^1-methyloxalamide]",200 to 2000 nM,1000 to 10000 nM,> 1000 nM,> 1000 nM,> 10000 nM,–,–
C[C@H](NC(=O)OC1CC1)C(=O)N(C)[C@@H](CC1CC1)C(=O)N1C[C@@]2(C[C@H]1C#N)Oc1cccnc1NC2=O [Compound 219],< 20 nM,< 100 nM,–,> 1000 nM,> 10000 nM,100 to 1000 nM,–
CN(C(=O)C(O)c1ccc(F)cc1)[C@@H](CC1CC1)C(=O)N1C[C@@]2(C[C@H]1C#N)Oc1cc(F)cc(F)c1NC2=O (some centres unmarked) [Compound 136],< 20 nM,100 to 1000 nM,–,> 1000 nM,> 10000 nM,100 to 1000 nM,–
"CN(C)C(=O)c1ccc2c(c1)O[C@@]1(C[C@@H](C#N)N(C(=O)[C@H](CC3CC3)N(C)C(=O)[C@H](CC3CC3)NC(=O)C(F)(F)F)C1)C(=O)N2 [Compound 112, (2R,5'S)-5′-cyano-1′-((S)-3-cyclopropyl-2-((S)-3-cyclopropyl-N-methyl-2-(2,2,2-trifluoroacetamido)propanamido)propanoyl)-N,N-dimethyl-3-oxo-3,4-dihydrospiro[benzo[b][1,4]oxazine-2,3′-pyrrolidine]-7-carboxamide]",< 20 nM,< 100 nM,–,> 1000 nM,> 10000 nM,100 to 1000 nM,–
CC(C)[C@H](NC(=O)C(F)(F)F)C(=O)N(C)[C@@H](CC1CC1)C(=O)N1C[C@@]2(C[C@H]1C#N)Oc1cccnc1NC2=O [Compound 177],< 20 nM,100 to 1000 nM,–,> 1000 nM,> 10000 nM,100 to 1000 nM,–
"CC(C)C[C@@H](C(=O)N1C[C@]2(C[C@H]1C#N)C(=O)Nc1cc(Br)nn12)N(C)C(=O)[C@H](C)NC(=O)C(F)(F)F [Compound 26, (2S)—N-[(2S)-1-[(3R,5'S)-6-bromo-5′-cyano-2-oxo-1H-spiro[pyrazolo[1,5-a]imidazole-3,3′-pyrrolidin]-1′-yl]-4-methyl-1-oxopentan-2-yl]-N-methyl-2-(2,2,2-trifluoroacetamido)propanamide]",20 to 200 nM,100 to 1000 nM,> 1000 nM,> 1000 nM,> 10000 nM,–,–
CC(C)C[C@@H](C(=O)N1C[C@@]2(C[C@H]1C#N)Oc1c(F)cc(F)cc1NC2=O)N(C)C(=O)[C@H](C)NC(=O)C(F)(F)F [Compound 49],< 20 nM,100 to 1000 nM,–,> 1000 nM,> 10000 nM,100 to 1000 nM,–
C[C@H](NC(=O)C(F)(F)F)C(=O)N(C)[C@@H](Cc1ccc(F)cc1)C(=O)N1C[C@@]2(C[C@H]1C#N)Oc1cccnc1NC2=O [Compound 181],< 20 nM,1000 to 10000 nM,–,> 1000 nM,> 10000 nM,100 to 1000 nM,–
CN(C(=O)[C@H](CC1CC1)NC(=O)C(F)(F)F)[C@@H](CC1CC1)C(=O)N1C[C@]2(C[C@H]1C#N)C(=O)Nc1ccccc1S2(=O)=O [Compound 82],20 to 200 nM,100 to 1000 nM,> 1000 nM,> 1000 nM,> 10000 nM,–,–
CN(C(=O)[C@H](CC1(C)CC1)NC(=O)C(F)(F)F)[C@@H](CC1(C)CC1)C(=O)N1C[C@@]2(C[C@H]1C#N)Oc1cccnc1NC2=O [Compound 215],< 20 nM,< 100 nM,–,> 1000 nM,> 10000 nM,< 100 nM,–
CN(C(=O)[C@H](CC1CCC1)NC(=O)C(F)(F)F)[C@@H](CC1CC1)C(=O)N1C[C@@]2(C[C@H]1C#N)Oc1cc(F)cc(F)c1NC2=O [Compound 87],< 20 nM,100 to 1000 nM,–,> 1000 nM,> 10000 nM,< 100 nM,–
"CC(C)CC(C(=O)N1C[C@]2(C[C@H]1C#N)C(=O)Nc1c3c(nn12)CCCC3)N(C)C(=O)[C@H](C)NC(=O)C(F)(F)F (stereo in doubt) [Example 28, (2S)—N-[(2S)-1-[(3R,5'S)-5′-cyano-2-oxo-6,7,8,9-tetrahydro-1H-spiro[imidazo[1,2-b]indazole-3,3′-pyrrolidin]-1′-yl]-4-methyl-1-oxopentan-2-yl]-N-methyl-2-(2,2,2-trifluoroacetamido)propanamide]",< 20 nM,< 100 nM,> 1000 nM,> 1000 nM,> 10000 nM,–,–
CN(C(=O)[C@H]1CCN(C(=O)C(F)(F)F)C1)[C@@H](CC1CC1)C(=O)N1C[C@@]2(C[C@H]1C#N)Oc1cc(F)cc(F)c1NC2=O [Compound 129],200 to 2000 nM,–,–,> 1000 nM,> 10000 nM,100 to 1000 nM,> 10000 nM
CN(C(=O)[C@H](CC(C)(C)C)NC(=O)C(F)(F)F)[C@@H](CC1CC1)C(=O)N1C[C@@]2(C[C@H]1C#N)Oc1ncccc1NC2=O [Compound 204],< 20 nM,< 100 nM,–,> 1000 nM,> 10000 nM,< 100 nM,–
CN(C(=O)[C@H](CC1CC1)NC(=O)C(F)(F)F)[C@@H](CC1CC1)C(=O)N1C[C@@]2(C[C@H]1C#N)Oc1c(F)cc(F)cc1CNC2=O [Compound 199],< 20 nM,< 100 nM,–,> 1000 nM,> 10000 nM,100 to 1000 nM,–
"CN(C(=O)[C@@H]1CC[C@@H](c2ccccc2)N1)[C@@H](CC1CC1)C(=O)N1C[C@@]2(C[C@H]1C#N)Oc1cc(F)cc(F)c1NC2=O [Compound 111, (2S,5S)—N—((S)-1-((2R,5'S)-5′-cyano-5,7-difluoro-3-oxo-3,4-dihydrospiro[benzo[b][1,4]oxazine-2,3′-pyrrolidin]-1′-yl)-3-cyclopropyl-1-oxopropan-2-yl)-N-methyl-5-phenylpyrrolidine-2-carboxamide]",< 20 nM,100 to 1000 nM,–,> 1000 nM,> 10000 nM,100 to 1000 nM,–
